The CC50 is the concentration that lowers cell viability or growth by half. What is called IC50 is the concentration that inhibits the measured activity by half.

Data set [1] can be described thus: Cytotoxicity against human MT4 cells […] assessed as cell growth inhibition after 5 days by MTT assay. In kind it is cell-based. Background: Tetrazolium dyes change colour on reduction, which living cells bring about.
The subject of data set [2] is Human immunodeficiency virus 1. In words: Antiviral activity against HIV1 3B infected in human MT4 cells assessed as protection against virus-induced cytopathogenic effect after 5 days by MTT assay. The class given is functional, organism-based. Conditions: for IC50: Human immunodeficiency virus 1, 3B, MT4, 120 h. Background: Cytopathic effects are the visible damage that an infection or toxin causes in cultured cells.

Data set [3] concerns Vero. Description: Cytotoxicity against African green monkey Vero cells assessed as cell growth inhibition after 24 hrs by MTT assay. In kind it is cell-based. Conditions: Chlorocebus sabaeus.

Converted amounts (≈) assume the structure as drawn.

On to `Cc1ccc(-c2nc3cc(F)c(Cl)cc3nc2-c2ccc(C)cc2)cc1`, for which, in data set [1], the half-maximal cytotoxic concentration (CC50) at 120 h is 27.8 µg/mL (≈ 76.6 µM). The “%max” value in data set [2] is listed as 4%. Besides, the values for the IC50 in data set [2] and in data set [3] were above 27.8 µg/mL and above 100 µg/mL, respectively.

For `CC(=O)O[C@H]1C(=O)[C@@]2(C)[C@H]([C@H](OC(=O)c3ccccc3)[C@]3(O)C[C@H](OC(=O)[C@H](O)[C@@H](NC(=O)c4ccccc4)c4ccccc4)C(C)=C1C3(C)C)[C@]1(OC(C)=O)CO[C@@H]1C[C@@H]2O` [PACLITAXEL], in data set [3], the half-inhibitory concentration (IC50) is above 100 µg/mL.

With `Cc1ccnc2c1NC(=O)c1cccnc1N2C1CC1` [NEVIRAPINE], the IC50 was 0.075 µg/mL (≈ 0.282 µM) in data set [2] and above 100 µg/mL in data set [3].

Turning to `Fc1cc2nc(-c3ccccc3)c(-c3ccccc3)nc2cc1Cl`, the CC50 at 120 h in data set [1] came to 11.8 µg/mL (≈ 35.2 µM). Moreover, the “%max” value in data set [2] worked out at 3%. Moreover, the IC50 was above 11.8 µg/mL in data set [2] and above 100 µg/mL in data set [3].

Turning to `Nc1ccn([C@@H]2CS[C@H](CO)O2)c(=O)n1` [LAMIVUDINE], the CC50 at 120 h in data set [1] was 20 µg/mL (≈ 87.2 µM). In addition, the concentration for half-maximal inhibition (IC50) in data set [2] amounted to 0.58 µg/mL (≈ 2.53 µM).

For the compound `O=c1[nH]cnc2c1ncn2[C@H]1CC[C@@H](CO)O1` [DIDANOSINE], in data set [2], the IC50 was found to be 17.9 µg/mL (≈ 76 µM).

In the case of `Fc1cc2nccnc2cc1Cl`, the CC50 at 120 h in data set [1] was found to be 91.2 µg/mL (≈ 499 µM). Also, in data set [2], the “%max” value is reported as 3% and the concentration for half-maximal inhibition (IC50) is above 91.1 µg/mL. The IC50 in data set [3] came out at 13.7 µg/mL (≈ 75 µM).

Turning to `Cc1nc2cc(F)c(Cl)cc2nc1C`, the CC50 at 120 h in data set [1] amounted to 49.7 µg/mL (≈ 236 µM). Besides, in data set [2], the “%max” value stood at 5% and the 50% inhibitory concentration (IC50) was above 49.7 µg/mL. The IC50 in data set [3] is above 100 µg/mL.

Consider `Nc1nc2cc(F)c(Cl)cc2nc1N`, for which the cytotoxic concentration (CC50) at 120 h in data set [1] was 38.5 µg/mL (≈ 181 µM). The “%max” value in data set [2] is reported as 9%. In addition, the IC50 in data set [2] was above 38.4 µg/mL; in data set [3], above 100 µg/mL.

As for `COc1ccc(-c2nc3cc(F)c(Cl)cc3nc2-c2ccc(OC)cc2)cc1`, in data set [1], the 50% cytotoxic concentration (CC50) at 120 h was 30.6 µg/mL (≈ 77.4 µM). Further, the “%max” value in data set [2] is reported as 1%. Further, the IC50 in data set [2] was above 30.5 µg/mL; in data set [3], above 100 µg/mL.

`Cc1cn([C@H]2C[C@H](N=[N+]=[N-])[C@@H](CO)O2)c(=O)[nH]c1=O` [ZIDOVUDINE]: the CC50 at 120 h in data set [1] amounted to 2 µg/mL (≈ 7.48 µM). Further, the IC50 in data set [2] was 0.002 µg/mL (≈ 0.00748 µM).

Take `Fc1ccc(-c2nc3cc(F)c(Cl)cc3nc2-c2ccc(F)cc2)cc1`: the half-maximal cytotoxic concentration (CC50) at 120 h in data set [1] turned out to be 15.4 µg/mL (≈ 41.7 µM). For the same compound, the “%max” value in data set [2] is 3%. Moreover, the results for the concentration for half-maximal inhibition (IC50) in data set [2] and in data set [3] were above 15.4 µg/mL and above 100 µg/mL, respectively.

These data come from ChEMBL document CHEMBL3808294, “Design, synthesis and anti-HIV activity of novel quinoxaline derivatives” (Eur J Med Chem, 2016).
